Marks after values point to notes of the source that are not given here.
Key:
PTHR1 = biological target: T1, PTHR1 (Homo sapiens, UniProt Q03431); test: class B GPCR cAMP assay, PTHR1; format: cell-based
T1 construct: host or cells: cells of an unnamed vendor
T1 sequence (Q03431 27-593): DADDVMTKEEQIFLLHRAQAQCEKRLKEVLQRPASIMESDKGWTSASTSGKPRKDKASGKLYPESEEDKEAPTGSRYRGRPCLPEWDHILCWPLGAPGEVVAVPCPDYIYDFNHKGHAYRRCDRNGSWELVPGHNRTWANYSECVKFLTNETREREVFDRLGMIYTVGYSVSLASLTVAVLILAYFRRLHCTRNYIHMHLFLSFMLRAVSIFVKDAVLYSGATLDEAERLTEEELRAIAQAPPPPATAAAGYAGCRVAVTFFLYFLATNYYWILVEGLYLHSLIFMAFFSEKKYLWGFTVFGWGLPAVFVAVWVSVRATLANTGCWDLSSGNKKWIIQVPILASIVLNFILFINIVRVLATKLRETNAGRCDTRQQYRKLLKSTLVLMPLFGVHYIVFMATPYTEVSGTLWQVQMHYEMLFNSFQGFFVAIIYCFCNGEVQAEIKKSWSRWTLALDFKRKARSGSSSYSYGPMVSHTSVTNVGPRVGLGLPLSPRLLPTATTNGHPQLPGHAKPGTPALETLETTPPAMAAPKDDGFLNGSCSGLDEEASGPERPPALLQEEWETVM
Description: The assays were performed according to the vendor's standard operating procedures with a positive control included for each receptor tested.

DIO mice [1] = test: OGTT (blood glucose, insulin) in DIO mice after 8 days of treatment; format: in vivo, mouse; details: 0.3 nmol/kg s.c. every day
Description: (§1) Compound 1 was evaluated for its ability to reduce foot intake and body weight and improve glucose homeostasis on repeat dosing in male DIO C57B1/6 mice over a period of 8 days. Male DIO C57BL/6N mice (20 weeks of age, 14 weeks on high fat diet) were obtained from Taconic Laboratory. […] Animals were acclimated to the facility for at least one week prior to the start of the experiment.
(§2) The day prior to dosing, mice were grouped based on individual body weights. At 3:00-4:00 pm for each of the next 8 days, animals and food intake were weighed. […] After 8 days, mice are fasted for 5 hours and then given a 2 g/kg bolus of glucose orally at t=0. At t=0, 30, 60, 90, and 120 minutes post glucose challenge blood glucose is measured and at t=0, 30, and 90 minutes blood in drawn to measure plasma insulin. […] All data are presented as the mean±SEM (FIGS. 8 and 9, and Tables 5-8).

DIO mice [2] = test: Fed blood glucose in DIO mice after 8 days of treatment; format: in vivo, mouse; details: 0.3 nmol/kg s.c. every day
Description: as §1, §2

DIO mice [3] = test: Repeat dosing in DIO mice: daily food intake; format: in vivo, mouse; details: 0.3 nmol/kg s.c. daily
Description: (§3) To control for the dosing frequency, all animals were dosed daily. Dosing frequency was determined on the basis of DIO mouse PK data for compound 2 and dulaglutide. Animals in the dulaglutide group received this drug daily. The vehicle-treated animals received vehicle daily. […] The day prior to initiating of dosing, animals were weighed and grouped by body weight. […].
(§4) Beginning 24-hr after the first dosing, three groups of mice were pair-fed (PF) to the 1.0, 2.0, or 4.0 nmol/kg compound 2-treated animals. The amount of food in the hopper of pair-fed mice was adjusted to match the average food consumed in the previous 24 hours by mice in the compound treatment group to which they were being matched. All PF groups were dosed daily with vehicle. On the ninth day (or Day 10 for the pair-fed groups), animals were fasted for 6 hours and body weight and fasting glucose were measured. Blood was collected for measurements of insulin, FGF21 and plasma lipids. The food intake, body weight, body composition, fasting glucose, fasting insulin, fasting FGF21, and fasting plasma lipid data are shown in tables 20-26.

[4] = Repeat dosing in DIO mice: body weight change and body composition; format: in vivo, mouse; details: 0.3 nmol/kg s.c. daily
Description: as §3, §4

DIO mice [5] = test: Repeat dosing in DIO mice: fasting glucose, insulin, FGF21, plasma lipids; format: in vivo, mouse; details: after repeated dosing, 0.3 nmol/kg s.c. daily
Description: as §3, §4

DIO mice [6] = test: Single-dose efficacy in DIO mice: food intake; details: single s.c. dose 0.3 nmol/kg
DIO mice [7] = test: Single-dose efficacy in DIO mice: plasma FGF21; details: 26 hours after treatment, single s.c. dose 0.3 nmol/kg
[8] = Single-dose efficacy in DIO mice: body weight change; details: single s.c. dose 0.3 nmol/kg, 18 hours after treatment, relative to day 0
DIO mice [9] = test: Single-dose efficacy in DIO mice: fasting glucose, IPGTT glucose and insulin; details: single s.c. dose 0.3 nmol/kg

## CC[C@H](C)[C@H](NC(=O)[C@H](CCC(=O)O)NC(=O)[C@H](CO)NC(=O)[C@@H](NC(=O)[C@@H](N)CO)C(C)C)C(=O)N[C@@H](CCC(N)=O)C(=O)N[C@@H](CC(C)C)C(=O)N[C@@H](CCSC)C(=O)N[C@@H](Cc1cnc[nH]1)C(=O)N[C@@H](CC(N)=O)C(=O)N[C@@H](CC(C)C)C(=O)NCC(=O)N[C@@H](CCCCN)C(=O)N[C@@H](Cc1cnc[nH]1)C(=O)N[C@@H](CC(C)C)C(=O)N[C@@H](CC(N)=O)C(=O)N[C@@H](CO)C(=O)N[C@@H](CCSC)C(=O)N[C@@H](CCC(=O)O)C(=O)N[C@@H](CCCNC(=N)N)C(=O)N[C@H](C(=O)N[C@@H](CCC(=O)O)C(=O)N[C@@H](Cc1c[nH]c2ccccc12)C(=O)N[C@@H](CC(C)C)C(=O)N[C@@H](CCCNC(=N)N)C(=O)N[C@@H](CCCCN)C(=O)N[C@@H](CCCCN)C(=O)N[C@@H](CC(C)C)C(=O)N[C@@H](CCC(N)=O)C(=O)N[C@@H](CC(=O)O)C(=O)N[C@H](C(=O)N[C@@H](Cc1cnc[nH]1)C(=O)N[C@@H](CC(N)=O)C(=O)N[C@@H](Cc1ccccc1)C(=O)O)C(C)C)C(C)C [PTH(1-34)]
PTHR1
  Curve Bottom: −5.9767
  Curve Top: 101
  Hill: 1.8672

## Dulaglutide: GLP1R agonist (long-acting GLP-1 receptor agonist) [reference compound]
DIO mice [1]
  blood glucose Delta AUC (OGTT): 6668 ± 1846 mg/dl/120 min
  blood glucose Total AUC (OGTT): 15758 ± 1054 mg/dl/120 min
DIO mice [1]; 0 min after glucose challenge
  blood glucose during an OGTT: 76 ± 9 mg/dL
  insulin during an OGTT: 0.6 ± 0.1 ng/mL
DIO mice [1]; 30 min after glucose challenge
  blood glucose during an OGTT: 151 ± 14 mg/dL
  insulin during an OGTT: 1.7 ± 0.2 ng/mL
DIO mice [1]; 60 min after glucose challenge
  blood glucose during an OGTT: 174 ± 17 mg/dL
DIO mice [1]; 90 min after glucose challenge
  blood glucose during an OGTT: 104 ± 10 mg/dL
  insulin during an OGTT: 0.7 ± 0.2 ng/mL
DIO mice [1]; 120 min after glucose challenge
  blood glucose during an OGTT: 119 ± 9 mg/dL
DIO mice [2]
  fed Blood Glucose: 114 ± 13 mg/dL
DIO mice [3]; day 0
  daily food intake: 3.1 ± 0.2 grams
DIO mice [3]; day 1
  daily food intake: 1.5 ± 0.2 grams
DIO mice [3]; day 2
  daily food intake: 1.3 ± 0.2 grams
DIO mice [3]; day 3
  daily food intake: 1.7 ± 0.3 grams
DIO mice [3]; day 4
  daily food intake: 1.9 ± 0.2 grams
DIO mice [3]; day 5
  daily food intake: 2.1 ± 0.2 grams
DIO mice [3]; day 6
  daily food intake: 2.2 ± 0.2 grams
DIO mice [3]; day 7
  daily food intake: 2.3 ± 0.2 grams
DIO mice [3]; day 8
  daily food intake: 2.9 ± 0.4 grams
DIO mice [3]; day 9
  daily food intake: 2.5 ± 0.2 grams
[4]; day 0, relative to day 0
  percent body weight change: 0.0%
[4]; day 1, relative to day 0
  percent body weight change: −3.7 ± 0.3%
[4]; day 2, relative to day 0
  percent body weight change: −6.2 ± 0.6%
[4]; day 3, relative to day 0
  percent body weight change: −7.8 ± 0.8%
[4]; day 4, relative to day 0
  percent body weight change: −9.2 ± 0.8%
[4]; day 5, relative to day 0
  percent body weight change: −10.1 ± 0.8%
[4]; day 6, relative to day 0
  percent body weight change: −10.2 ± 0.8%
[4]; day 7, relative to day 0
  percent body weight change: −10.7 ± 1.0%
[4]; day 8, relative to day 0
  percent body weight change: −11.1 ± 0.9%
[4]; day 9, relative to day 0
  percent body weight change: −13.1 ± 1.1%
[4]; after repeated dosing
  body composition: Fat Mass: 7.6 ± 1.1 g
  body composition: Fat, % of Body Weight: 22.8 ± 1.2%
  body composition: Lean Mass: 22.1 ± 0.3 g
  body composition: Lean, % of Body Weight: 61.0 ± 1.7%
DIO mice [5]
  6 hour fasting Blood Glucose: 123 ± 5 mg/dL
  6 hour fasting Plasma Insulin: 1.4 ± 0.2 ng/mL
  6 hour fasting plasma FGF21: 0.5 ± 0.1 ng/mL
  plasma Free Fatty Acids: 73.2 ± 12.0 µmol/L
  plasma Free Glycerol: 0.5 ± 0.1 mmol/L
  plasma Total cholesterol: 146.1 ± 3.3 mg/dL
  plasma Tri-glycerides: 24.1 ± 2.3 mg/dL
DIO mice [6]; 18 hours post-dose
  food intake: 1.5 ± 0.1*^ grams
DIO mice [6]; 24 hours pre-dose
  food intake: 3.1 ± 0.1 grams
DIO mice [7]
  Plasma FGF21: 0.8 ± 0.2 ng/mL
[8]
  Weight Change (%): −4.1 ± 0.3 %
DIO mice [9]; 24 hours after treatment
  6 hour fasting Blood Glucose: 140 ± 7 mg/dL
  Blood Glucose Net AUC during an IPGTT: 8471 ± 1204
DIO mice [9]; 24 hours after treatment, 0 min
  blood glucose during an IPGTT: 140 ± 7 mg/dL
DIO mice [9]; 24 hours after treatment, 10 min
  blood glucose during an IPGTT: 264 ± 18 mg/dL
DIO mice [9]; 24 hours after treatment, 30 min
  blood glucose during an IPGTT: 267 ± 22 mg/dL
DIO mice [9]; 24 hours after treatment, 60 min
  blood glucose during an IPGTT: 228 ± 12 mg/dL
DIO mice [9]; 24 hours after treatment, 90 min
  blood glucose during an IPGTT: 193 ± 9 mg/dL
DIO mice [9]; 10 minutes post-glucose (IPGTT)
  Plasma Insulin: 1.7 ± 0.2 ng/mL
DIO mice [9]; Pre-glucose (24 hours after treatment)
  Plasma Insulin: 1.6 ± 0.2 ng/mL
